Reference: patent US20240269292A1
“Also recorded” adds a separate entry of the source. Non-standard residues stand in square brackets, D forms with d. Residues, ends and D or L forms follow the SMILES beside them. Dmt = Cc1cc(O)cc(C)c1C[C@H](N)C(=O)O

What was measured:
[1] = test system: retinal pigment epithelium (RPE) cells; assay type: cell-based
Method: (§1) Cells are then treated with drug (or control phosphate-buffered saline (PBS) solution) and assayed for effects on mitochondrial dysfunction and other cellular changes.
Mitochondrial dysfunction is manifest as increased flavoprotein autofluorescence (upper panels) and as dysmorphology of the actin cytoskeleton (lower panels). […] EY005-stearyl was also preincubated with carboxyesterase (0.1 μg/mL) in separate media.
(§2) Mitochondrial dysfunction can be modeled using in vitro cell culture systems relevant to retinal disease. In one such system, retinal pigment epithelium (RPE) cells are cultured to post-confluence to establish a differentiated cell monolayer and are then assayed for mitochondrial dysfunction and effect of drugs for treatment of mitochondrial dysfunction (FIG. 5). In this model, mitochondrial dysfunction is induced by two exposures to nonlethal doses of hydroquinone (HQ) at day −3 and day 0. Hydroquinone (HQ), a well-known environmental toxicant ubiquitously present in Western lifestyle, is a biochemical inducer of mitochondrial dysfunction. When HQ is added to fully differentiated RPE cell cultures, HQ competes with mitochondrial ubiquinone, siphoning high-energy electrons from electron transport chain, which then reduces oxygen into superoxide, leading to cardiolipin peroxidation and mitochondrial dysfunction. Cells are then treated with a drug of interest (mitochondrial targeted peptide drug or a prodrug thereof) or control (phosphate-buffered saline (PBS) solution and assayed for effects on mitochondrial dysfunction, as measured by microscopy of flavoprotein autofluorescence (a measure of mitochondrial electron transport chain complex II decompensation) (FIG. 6).

[2] = test system: retinal pigment epithelium (RPE) cells; experiment: Actin cytoskeleton disorganization (phalloidin) in HQ-exposed RPE cells; assay type: cell-based; conditions: 5 μM
Method: as §1
as §2, with “When HQ is added to fully differentiated RPE cell cultures, HQ competes with mitochondrial ubiquinone, siphoning high-energy electrons from electron transport chain, which then reduces oxygen into superoxide, leading to cardiolipin peroxidation and mitochondrial dysfunction.” left out

[3] = test system: retinal pigment epithelium (RPE) cells; experiment: HQ-induced mitochondrial dysfunction in RPE cells (flavoprotein autofluorescence); assay type: cell-based; conditions: HQ-exposed RPE cells, versus elamipretide or native EY005
Method: as §1
as §2, with “When HQ is added to fully differentiated RPE cell cultures, HQ competes with mitochondrial ubiquinone, siphoning high-energy electrons from electron transport chain, which then reduces oxygen into superoxide, leading to cardiolipin peroxidation and mitochondrial dysfunction.” left out

[4] = In vivo kinetics after intravitreal Mito XR bolus in rabbit eyes, LC/MS
[5] = Accelerated in vitro release assay with complexation agents in methyl laurate; assay type: physicochemical; conditions: EY005 MTT formulated with various complexation agents, methyl laurate dispersal medium
Text: In all cases, all EY005 was rapidly released, in some cases within hours, and in all cases by day 3.

mouse retinal tissues = experiment: Mouse experimental retinal vein occlusion (RVO) model; assay type: in vivo
Text: Control, untreated mice show undetectable FP-AF and superoxide.
Control, untreated mice show normal synaptic markers.
FIGS. 11H-111 show visual function as quantified by electroretinogram (ERG) in mice treated with control, RVO and RVO with EY005 pretreatment or EY005 post-treatment. B-wave amplitudes were quantified from at least 5 eyes for each condition.

[6] = Hydrophobicity and aqueous solubility; assay type: physicochemical
[7] = test system: retinal pigment epithelium (RPE) cells; experiment: Dysregulated extracellular matrix (vimentin) in HQ-exposed RPE cells; assay type: cell-based; conditions: ≥5 μM
Method: as §1
as §2, with “When HQ is added to fully differentiated RPE cell cultures, HQ competes with mitochondrial ubiquinone, siphoning high-energy electrons from electron transport chain, which then reduces oxygen into superoxide, leading to cardiolipin peroxidation and mitochondrial dysfunction.” left out

rabbit RPE = experiment: Rabbit ocular hydroquinone (HQ) model of dry AMD; assay type: in vivo
[8] = Theoretical in vivo release pharmacokinetics from XRDDS in vitreous cavity of rabbit eyes (FIGS. 31-32); conditions: theoretical data
Text: (§3) FIG. 31 illustrates theoretical in vivo release pharmacokinetic data comparing release kinetics of unmodified EY005 from the novel extended-release drug delivery system to that of two EY005 prodrugs, each of which is also formulated in the novel extended-release drug delivery system and injected into the vitreous cavity of rabbit eyes.
as §3, with “32” for “31”

[9] = rabbit
Text: In some examples, cleavage and release of the free bioactive mitochondrial targeted tetrapeptide can be assessed following in vivo injection of the implant containing the prodrug within the extended release drug delivery system into the vitreous cavity or periocular tissues of a preclinical animal model (e.g., mouse, rat, rabbit, pig, etc.) (FIG. 29), wherein ocular tissue is recovered, and analytic methods such as HPLC or mass spectrometry can be used to calculate the amount of free bioactive mitochondrial targeted tetrapeptide and intact prodrug, at various timepoints after in vivo injection.

[10] = In vitro release kinetics of pilot formulation of Mito XR; assay type: physicochemical; conditions: same complexation agent and dispersal medium as Mito XR
RPE cells of rabbit eyes = experiment: Rabbit ocular hydroquinone (HQ) model of dry AMD (DCFDA, vimentin, phalloidin on RPE flatmounts); assay type: in vivo
Method: FIG. 12 illustrates one example of a relevant animal model, specifically a rabbit-based protocol used to characterize the prodrugs of mitochondrial targeted tetrapeptides described herein. In this model, HQ (0.05 mL, 250 mM HQ) is injected into the vitreous cavity of rabbit eye on day 0 and day 1, and drug of interest (mitochondrial targeted peptide or prodrug thereof) or control (PBS) solution is injected into the same vitreous cavity of the rabbit eye at day 2. At day 4, the rabbit is euthanized, and eyes recovered for histologic analysis of retina and RPE flatmounts for various metrics, including cellular oxidation (DCFDA), as a surrogate of mitochondrial dysfunction, as well as for other cellular markers.
The rabbit hydroquinone (HQ) model of dry AMD (FIG. 12) was induced and flatmount of retinal pigment epithelium (RPE) were isolated.
Scores were determined by masked expert graders in at least 100 RPE cells from at least 3 eyes per condition.
A rabbit model of mitochondrial dysfunction is also used to assay bioactivity of MTT and prodrugs derived thereof. […] On day 2, the MTT (e.g., EY005, 15 μM) were injected IVT. On day 3, a fluorogenic dye that measures hydroxyl, peroxyl and other reactive oxygen species (e.g., DCFDA) was injected IVT, and tissues were collected 12 hours later. RPE flatmounts were processed for multiple readouts: oxidation byproducts (DCFDA, FIG. 13) and measures of RPE-associated extracellular matrix (cytosolic vimentin expression, FIG. 14), and RPE cell dysmorphology (i.e., actin cytoskeleton (phalloidin), FIG. 14). All were analyzed and quantified by microscopy.
For example, in the rabbit ocular hydroquinone model, systemic administration of the maximally tolerated human dose of mitochondrial-targeted peptide (EY005) allometrically scaled for the rabbit, only partially restores RPE actin cytoskeletal integrity (FIG. 15D). In contrast, IVT injection of EY005 results in downregulation of RPE vimentin expression (FIG. 14) and restoration of normal RPE actin cytoskeleton integrity (FIG. 15C). […] IVT EY005 treatment produced an approximately 75% reduction of oxidation byproducts. […] In this setting, retinal and RPE tissue levels achieved by IVT administration in rabbits are substantially higher than tissue levels obtained by SQ administration of the maximally tolerated human dose allometrically scaled for rabbits.

[11] = cultured RPE cells, dose-response
[12] = cultured RPE cells, high dose (≥5 μM)
[13] = rabbit, single IVT dose of 15 μg, 36 hrs. after drug treatment

Cc1cc(O)cc(C)c1C[C@H](NC(=O)[C@H](N)CCCNC(=N)N)C(=O)N[C@@H](CCCCN)C(=O)N[C@@H](Cc1ccccc1)C(=O)O [EY005, H-d-Arg-DMT-Lys-Phe] (H-[dR][Dmt]KF-OH)
reversal of HQ-induced mitochondrial dysfunction (flavoprotein autofluorescence) ([1]; HQ-exposed cultured RPE cells): reversal of induced mitochondrial dysfunction; also recorded: near complete reversal of mitochondrial dysfunction | efficacy and potency for reduction of flavoprotein autofluorescence compared to elamipretide ([1]; HQ-exposed cultured RPE cells, dose-response): equivalent efficacy and potency; also recorded: comparable or equivalent dose-response and potency to elamipretide | efficacy and potency for reversal of actin cytoskeleton disorganization compared to elamipretide [1, 11]: equivalent efficacy and potency | efficacy and potency for reversal of dysregulated extracellular matrix (vimentin) compared to elamipretide [1, 11]: equivalent efficacy and potency | reversal of actin cytoskeleton disorganization (phalloidin staining) [1, 12]: reversal of actin cytoskeleton disorganization | reversal of dysregulated extracellular matrix (vimentin expression) [1, 12]: reversal of dysregulated extracellular matrix | Reversal of actin cytoskeleton disorganization [2]: restores normal RPE cell morphology | Potency for reversal of mitochondrial dysfunction relative to comparator [3]: equipotent to elamipretide | Residual drug in recovered bolus ([4]; bolus formulation of EY005 native peptide): no residual drug | Retinal tissue concentrations ([4]; through 7-week timepoint (Mito XR), week 3.5 (EY005 native peptide bolus)): nearly undetectable | time by which all EY005 was released [5]: ≤ 3 days | markers of mitochondrial dysfunction (flavoprotein autofluorescence and superoxide) following RVO (mouse retinal tissues; mouse, 3 mg/kg BID subcutaneous): significantly attenuates both markers of mitochondrial dysfunction | synaptic markers (SV2, ZNP-1) in inner and outer plexiform layers following RVO (mouse retinal tissues; mouse, 3 mg/kg BID subcutaneous, pretreatment or posttreatment): significantly prevents (pretreatment) and reverses (posttreatment) loss of synaptic markers | ERG B-wave amplitude following RVO (mouse retinal tissues; mouse, pretreatment or post-treatment): significantly prevented or reversed loss of B-wave amplitude | efficacy in treatment of mouse model of RVO (mouse retinal tissues; systemic dose greater than the maximally tolerated dose in humans (allometrically scaled)): partially effective | Hydrophobicity [6]: highly hydrophilic | Aqueous solubility ([6]; native form): high aqueous solubility | Reversal of dysregulated extracellular matrix (vimentin) [7]: reverses dysregulation of RPE extracellular matrix | Reversal of RPE cytoskeletal dysmorphology (rabbit RPE; 0.9 mg/kg subcutaneous once daily): only partially effective | Efficacy of intravitreal versus subcutaneous administration (rabbit RPE; intravitreal injection): significantly more effective | time to nearly complete release of unmodified EY005 from XRDDS [8]: approximately 30 days | residual drug in recovered bolus, native peptide formulation ([9]; IVT bolus formulation of EY005 native peptide): contained no EY005 native peptide; also recorded: no residual drug in the recovered bolus | time by which tissue concentrations were nearly undetectable ([9]; IVT identical bolus formulation containing EY005 native peptide): ≤ 3.5 week | time beyond which EY005 tissue levels were not detectable ([9]; IVT multiphasic colloidal suspension bolus of EY005 native peptide): ≤ 21 days | release of native peptide formulated identically to Mito XR [10]: extremely rapid release; also recorded: excessive release | reversal of mitochondrial dysfunction (oxidant species) in RPE of rabbit eyes (RPE cells of rabbit eyes; rabbit HQ model, 15 μM IVT, within 36 hours of treatment): reduced oxidant species; also recorded: potent for reversal of mitochondrial dysfunction | reversal of RPE cytoskeletal dysmorphology, intravitreal (RPE cells of rabbit eyes; rabbit HQ model, intravitreal 15 μM): near complete reversal of RPE cytoskeletal dysmorphology | reversal of RPE cytoskeletal dysmorphology, subcutaneous (RPE cells of rabbit eyes; rabbit HQ model, subcutaneous 0.9 mg/kg once daily): only partial reversal of RPE cytoskeletal dysmorphology | retinal toxicity (RPE cells of rabbit eyes; rabbit, single IVT dose of 15 μg): no retinal toxicity was observed | reduction of cytoskeleton disorganization (phalloidin) (RPE cells of rabbit eyes; [13]): approximately 80% | reduction of oxidation byproducts (DCFDA) (RPE cells of rabbit eyes; [13]): approximately 75% | reversal of vimentin stain (RPE cells of rabbit eyes; [13]): approximately 90%
